From US7605163B2, “Benzoyl-piperazine derivatives” (Hoffmann-La Roche Inc., priority 2003, dated 2009) come the findings set out here.

In general, IC50 refers to the concentration at which inhibition is half-maximal. Low values mean greater potency, high ones weaker potency.

Structures are written as SMILES.

The test has as its target T1, mGlyT-1b (Mus musculus, UniProt P28571).
T1 construct: host or cells: Flp-in-CHO cells
T1 sequence (P28571 1-651 isoform P28571-2): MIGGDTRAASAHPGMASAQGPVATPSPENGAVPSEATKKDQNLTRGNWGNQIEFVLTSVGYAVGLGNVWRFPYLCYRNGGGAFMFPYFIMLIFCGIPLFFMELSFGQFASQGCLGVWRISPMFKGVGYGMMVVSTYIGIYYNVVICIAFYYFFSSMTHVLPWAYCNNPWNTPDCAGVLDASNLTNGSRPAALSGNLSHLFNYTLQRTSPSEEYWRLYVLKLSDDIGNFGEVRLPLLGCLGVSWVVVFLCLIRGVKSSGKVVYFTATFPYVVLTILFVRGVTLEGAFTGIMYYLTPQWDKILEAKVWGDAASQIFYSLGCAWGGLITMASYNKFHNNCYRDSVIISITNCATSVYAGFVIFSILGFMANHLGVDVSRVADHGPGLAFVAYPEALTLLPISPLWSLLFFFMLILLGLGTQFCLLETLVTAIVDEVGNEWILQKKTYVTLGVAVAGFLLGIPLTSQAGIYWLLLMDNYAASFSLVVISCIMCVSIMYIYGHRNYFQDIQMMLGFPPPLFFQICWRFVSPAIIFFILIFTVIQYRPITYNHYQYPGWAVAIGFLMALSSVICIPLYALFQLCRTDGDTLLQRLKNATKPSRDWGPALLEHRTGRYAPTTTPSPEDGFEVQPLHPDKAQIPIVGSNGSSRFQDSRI
As to the kind of experiment: Glycine Uptake Inhibition Assay (mGlyT-1b). Particulars: [3H]-glycine uptake inhibition at GlyT-1, Flp-in-CHO cells transfected with mGlyT-1b cDNA. Format: cell-based. The method, then: DMEM complete medium: Nutrient mixture F-12 (Gibco Life-technologies), fetal bovine serum (FBS) 5%, (Gibco life technologies), Penicillin/Streptomycin 1% (Gibco life technologies), Hygromycin 0.6 mg/ml (Gibco life technologies), Glutamine 1 mM Gibco life technologies)
Uptake buffer (UB): 150 mM NaCl, 10 mM Hepes-Tris, pH 7.4, 1 mM CaCl2, 2.5 mM KCl, 2.5 mM MgSO4, 10 mM (+) D-glucose. Flp-in™-CHO (Invitrogen Cat n^o R758-07) cells stably transfected with mGlyT1b cDNA.
Glycine Uptake Inhibition Assay (mGlyT-1b)
On day 1 mammalian cells, (Flp-in™-CHO), transfected with mGlyT-1b cDNA, were plated at the density of 40,000 cells/well in complete F-12 medium, without hygromycin in 96-well culture plates. On day 2, the medium was aspirated, and the cells were washed twice with uptake buffer (UB). The cells were then incubated for 20 min at 22° C. with either (i) no potential competitor, (ii) 10 mM non-radioactive glycine, (iii) a concentration of a potential inhibitor. A range of concentrations of the potential inhibitor was used to generate data for calculating the concentration of inhibitor resulting in 50% of the effect (e.g. IC50, the concentration of the competitor inhibiting glycine uptake of 50%).
A solution was then immediately added containing [^3H]-glycine 60 nM (11-16 Ci/mmol) and 25 μM non-radioactive glycine. The plates were incubated with gentle shaking, and the reaction was stopped by aspiration of the mixture and washing (three times) with ice-cold UB. The cells were lysed with scintillation liquid, shaken 3 hours and the radioactivity in the cells counted using a scintillation counter.

`CC(Oc1ccc(S(C)(=O)=O)cc1C(=O)N1CCN(c2cccc(C(F)(F)F)n2)CC1)C(F)(F)F` (racemic) [compound 459] showed an IC50 of 40 nM. The molecule `C[C@H](Oc1ccc(S(C)(=O)=O)cc1C(=O)N1CCN(c2ncc(C(F)(F)F)cc2F)CC1)C(F)(F)F` (racemic) [compound 470] showed an IC50 of 30 nM. Next, `CNS(=O)(=O)c1ccc(OC(C)C(F)(F)F)c(C(=O)N2CCN(c3ccc(C(F)(F)F)cc3)CC2)c1` (racemic) [compound 554]: 19 nM. Next, `CNS(=O)(=O)c1ccc(OC(C)C(F)(F)F)c(C(=O)N2CCN(c3cc(F)c(C#N)cc3F)CC2)c1` (racemic) [compound 557]: 42 nM; `CNS(=O)(=O)c1ccc(OC(C)C(F)(F)F)c(C(=O)N2CCN(c3ccc(C#N)c(F)c3F)CC2)c1` (racemic) [compound 558]: 29 nM. In turn, `CCC(C)Oc1ccc(S(C)(=O)=O)cc1C(=O)N1CCN(c2ccc(S(=O)(=O)CC)cc2F)CC1` (racemic) [compound 568] registered an IC50 of 44 nM.

The molecule `CC(Oc1ccc(S(C)(=O)=O)cc1C(=O)N1CCN(c2ccc(C(F)(F)F)cn2)CC1)C(F)(F)F` (single isomer, unassigned) [compound 464] showed an IC50 of 20 nM. In the case of `CC(Oc1ccc(S(C)(=O)=O)cc1C(=O)N1CCN(c2ccc(C(F)(F)F)cn2)CC1)C(F)(F)F` (single isomer, unassigned) [compound 465], the IC50 is 40 nM. In turn, `CC(Oc1ccc(S(C)(=O)=O)cc1C(=O)N1CCN(c2ccc(C(F)(F)F)cc2F)CC1)C(F)(F)F` (single isomer, unassigned) [compound 466] came in with an IC50 of 26 nM. The molecule `CC(Oc1ccc(S(C)(=O)=O)cc1C(=O)N1CCN(c2ccc(C(F)(F)F)cc2)CC1)C(F)(F)F` (single isomer, unassigned) [compound 468] had an IC50 of 20 nM. `CC(Oc1ccc(S(C)(=O)=O)cc1C(=O)N1CCN(c2ccc(C(F)(F)F)cc2)CC1)C(F)(F)F` (single isomer, unassigned) [compound 469]: the IC50 is 20 nM. Turning to `CC(=O)c1ccc(N2CCN(C(=O)c3cc(S(C)(=O)=O)ccc3OC(C)C)CC2)c(F)c1` [Example 1, 1-{3-fluoro-4-[4-(2-isopropoxy-5-methanesulfonyl-benzoyl)-piperazin-1-yl]-phenyl}-ethanone], it took 39 nM to reach half-maximal inhibition (IC50).

`CC(C)Oc1ccc(S(C)(=O)=O)cc1C(=O)N1CCN(c2ccc(C(F)(F)F)cc2F)CC1` [Example 5, [4-(2-fluoro-4-trifluoromethyl-phenyl)-piperazin-1-yl]-(2-isopropoxy-5-methanesulfonyl-phenyl)-methanone] came in with an IC50 of 12 nM.

`CC(=O)c1ccc(N2CCN(C(=O)c3cc(S(C)(=O)=O)ccc3OCC3CC3)CC2)c(F)c1` [Example 15, 1-{4-[4-(2-cyclopropylmethoxy-5-methanesulfonyl-benzoyl)-piperazin-1-yl]-3-fluoro-phenyl}-ethanone]: the midpoint of inhibition, the IC50, lay at 15 nM. As to `CS(=O)(=O)c1ccc(OCC(F)(F)F)c(C(=O)N2CCN(c3ccc(C(F)(F)F)cc3F)CC2)c1` [Example 28, [4-(2-fluoro-4-trifluoromethyl-phenyl)-piperazin-1-yl]-[5-methanesulfonyl-2-(2,2,2-trifluoro-ethoxy)-phenyl]-methanone], it took 12 nM to reach half-maximal inhibition (IC50). On to `COCCOc1ccc([N+](=O)[O-])cc1C(=O)N1CCN(c2ccc(C(C)=O)cc2F)CC1` [Example 54, 1-(3-Fluoro-4-{4-[2-(2-methoxy-ethoxy)-5-nitro-benzoyl]-piperazin-1-yl}-phenyl)-ethanone], for which the IC50 turned out to be 50 nM. Next, `CC(C)Oc1ccc([N+](=O)[O-])cc1C(=O)N1CCN(c2ccc(C(F)(F)F)cc2)CC1` [Example 62, (2-Isopropoxy-5-nitro-phenyl)-[4-(4-trifluoromethyl-phenyl)-piperazin-1-yl]-methanone]: 17 nM; `O=C(c1cc([N+](=O)[O-])ccc1OCC1CC1)N1CCN(c2ccc(C(F)(F)F)cc2)CC1` [Example 63, (2-Cyclopropylmethoxy-5-nitro-phenyl)-[4-(4-trifluoromethyl-phenyl)-piperazin-1-yl]-methanone]: 28 nM. `O=C(c1cc([N+](=O)[O-])ccc1OCC1CCC1)N1CCN(c2ccc(C(F)(F)F)cc2)CC1` [Example 64, (2-Cyclobutylmethoxy-5-nitro-phenyl)-[4-(4-trifluoromethyl-phenyl)-piperazin-1-yl]-methanone] yielded an IC50 of 25 nM. For the molecule `CCCCOc1ccc([N+](=O)[O-])cc1C(=O)N1CCN(c2ccc(C(F)(F)F)cc2)CC1` [Example 66, (2-Butoxy-5-nitro-phenyl)-[4-(4-trifluoromethyl-phenyl)-piperazin-1-yl]-methanone], the IC50 amounted to 32 nM. Regarding `CC(C)(C)COc1ccc([N+](=O)[O-])cc1C(=O)N1CCN(c2ccc(C(F)(F)F)cc2)CC1` [Example 68, [2-(2,2-Dimethyl-propoxy)-5-nitro-phenyl]-[4-(4-trifluoromethyl-phenyl)-piperazin-1-yl]-methanone], 8 nM corresponded to half-maximal inhibition (IC50). Next, `CC(C)COc1ccc([N+](=O)[O-])cc1C(=O)N1CCN(c2ccc(C(F)(F)F)cc2)CC1` [Example 70, (2-Isobutoxy-5-nitro-phenyl)-[4-(4-trifluoromethyl-phenyl)-piperazin-1-yl]-methanone]: 8 nM; `O=C(c1cc([N+](=O)[O-])ccc1OC1CCCC1)N1CCN(c2ccc(C(F)(F)F)cc2)CC1` [Example 71, (2-Cyclopentyloxy-5-nitro-phenyl)-[4-(4-trifluoromethyl-phenyl)-piperazin-1-yl]-methanone]: 8 nM; `CCCOc1ccc([N+](=O)[O-])cc1C(=O)N1CCN(c2ccc(C(F)(F)F)cc2)CC1` [Example 72, (5-Nitro-2-propoxy-phenyl)-[4-(4-trifluoromethyl-phenyl)-piperazin-1-yl]-methanone]: 26 nM. `O=C(c1cc([N+](=O)[O-])ccc1OC1CCC1)N1CCN(c2ccc(C(F)(F)F)cc2)CC1` [Example 74, (2-Cyclobutoxy-5-nitro-phenyl)-[4-(4-trifluoromethyl-phenyl)-piperazin-1-yl]-methanone] had an IC50 of 16 nM.

For the molecule `O=C(c1cc([N+](=O)[O-])ccc1OCC(F)(F)C(F)F)N1CCN(c2ccc(C(F)(F)F)cc2)CC1` [Example 80, [5-Nitro-2-(2,2,3,3-tetrafluoro-propoxy)-phenyl]-[4-(4-trifluoromethyl-phenyl)-piperazin-1-yl]-methanone], half-maximal inhibition (IC50) was put at 29 nM. As to `O=C(c1cc([N+](=O)[O-])ccc1OCC(F)(F)F)N1CCN(c2ccc(C(F)(F)F)cc2)CC1` [Example 84, [5-Nitro-2-(2,2,2-trifluoro-ethoxy)-phenyl]-[4-(4-trifluoromethyl-phenyl)-piperazin-1-yl]-methanone], inhibition was half-maximal at 40 nM (IC50). The molecule `O=C(c1cc([N+](=O)[O-])ccc1OC1CC2CCC1C2)N1CCN(c2ccc(C(F)(F)F)cc2)CC1` (centres unmarked) [Example 88, [2-(Bicyclo[2.2.1]hept-2-yloxy)-5-nitro-phenyl]-[4-(4-trifluoromethyl-phenyl)-piperazin-1-yl]-methanone] displayed an IC50 of 7 nM. Consider `O=C(c1cc([N+](=O)[O-])ccc1OCCCl)N1CCN(c2ccc(C(F)(F)F)cc2)CC1` [Example 92, [2-(2-Chloro-ethoxy)-5-nitro-phenyl]-[4-(4-trifluoromethyl-phenyl)-piperazin-1-yl]-methanone], for which the IC50 was found to be 50 nM.
